Starred links: 1 amine or outer side, 2 acyl side, 3 side chain; linkers in the order of their positions; H or OH if unused. Non-standard residues stand in square brackets, D forms with d. Residues, ends and D or L forms follow the SMILES beside them. Groups on a side chain read outwards from the residue. *: point of attachment. C18 diacid = O=C(O)CCCCCCCCCCCCCCCCC(=O)*; γGlu = O=C(O)[C@H](CCC(=O)[*:2])N[*:1]; Ac4c = NC1(C(=O)O)CCC1; AEEA = NCCOCCOCC(=O)O; Aib = CC(C)(N)C(=O)O

The target of this test is T1, human GLP-1 receptor (Homo sapiens, UniProt P43220).
T1 construct: expressed in transfected cells; host or cells: membranes of BHK cells (parent BHKTS13), clone FCW467-12A
Description: Assay (II)(a) GLP-1 receptor binding, 125I-GLP-1 displacement SPA on BHK membranes. As to conditions: without presence of serum albumin; read-out: GLP-1R IC50 (nM) [Assay (II)(a)]. Put shortly: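 Membranes from BHK cells (clone FCW467-12A) stably expressing human GLP-1R were incubated with serially diluted compounds (8×10EE-13 to 8×10EE-7 M before addition) and [125I]-GLP-1-(7-36)NH2 with WGA SPA beads, 2 h at 30° C, pH 7.4. IC50 taken from displacement by non-linear regression. Run at ≤0.001% or 2.0% final serum albumin.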

T1 sequence (P43220 24-463): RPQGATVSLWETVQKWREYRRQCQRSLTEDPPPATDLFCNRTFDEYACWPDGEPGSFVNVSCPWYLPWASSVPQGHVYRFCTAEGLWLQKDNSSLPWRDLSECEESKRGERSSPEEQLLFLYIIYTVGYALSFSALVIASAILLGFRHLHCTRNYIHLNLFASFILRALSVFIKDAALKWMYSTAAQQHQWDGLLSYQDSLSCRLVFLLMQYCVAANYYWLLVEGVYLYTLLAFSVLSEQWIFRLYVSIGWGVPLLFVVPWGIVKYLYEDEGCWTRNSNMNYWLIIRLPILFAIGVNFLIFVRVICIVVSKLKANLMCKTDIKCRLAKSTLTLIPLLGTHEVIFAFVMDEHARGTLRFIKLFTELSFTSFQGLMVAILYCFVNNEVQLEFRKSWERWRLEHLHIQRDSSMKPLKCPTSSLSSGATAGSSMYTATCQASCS

What is called IC50 is the midpoint of a concentration-inhibition curve. `CC[C@H](C)[C@H](NC(=O)[C@H](CC(C)C)NC(=O)[C@H](Cc1c[nH]c2ccccc12)NC(=O)[C@H](CCC(N)=O)NC(=O)[C@@H](NC(=O)[C@H](Cc1ccccc1)NC(=O)[C@H](CC(=O)O)NC(=O)[C@H](CCCNC(=N)N)NC(=O)[C@H](C)NC(=O)[C@H](CCCNC(=N)N)NC(=O)[C@H](CCCNC(=N)N)NC(=O)[C@H](CO)NC(=O)[C@H](CCC(=O)O)NC(=O)[C@H](CC(C)C)NC(=O)[C@H](Cc1ccc(O)cc1)NC(=O)[C@H](CCCNC(=N)N)NC(=O)[C@H](CO)NC(=O)[C@H](Cc1ccc(O)cc1)NC(=O)[C@H](CC(=O)O)NC(=O)[C@H](CO)NC(=O)[C@@H](NC(=O)[C@H](Cc1ccccc1)NC(=O)[C@@H](NC(=O)CNC(=O)[C@H](CCC(N)=O)NC(=O)C1(NC(=O)[C@@H](N)Cc2c[nH]cn2)CCC1)[C@@H](C)O)[C@@H](C)O)C(C)C)C(=O)N[C@@H](CCCCNC(=O)CC[C@H](NC(=O)COCCOCCNC(=O)CC[C@H](NC(=O)COCCOCCNC(=O)CC[C@H](NC(=O)COCCOCCNC(=O)CC[C@H](NC(=O)CC[C@H](NC(=O)CCCCCCCCCCCCCCCCC(=O)O)C(=O)O)C(=O)O)C(=O)O)C(=O)O)C(=O)O)C(=O)N[C@H](C(N)=O)[C@@H](C)O` [Chem. 36, N^ε28-[(4S)-4-carboxy-4-[[2-[2-[2-[[(4S)-4-carboxy-4-[[2-[2-[2-[[(4S)-4-carboxy-4-[[2-[2-[2-[[(4S)-4-carboxy-4-[[(4S)-4-carboxy-4-(17-carboxyheptadecanoylamino)butanoyl]amino]butanoyl]amino]ethoxy]ethoxy]acetyl]amino]butanoyl]amino]ethoxy]ethoxy]acetyl]amino]butanoyl]amino]ethoxy]ethoxy]acetyl]amino]butanoyl]-[Acb2,Arg12,Glu15,Arg20,Ile27,Lys28]-Glucagon amide] (H-H[Ac4c]QGTFTSDYSRYLESRRARDFVQWLIK([γGlu-AEEA-γGlu-AEEA-γGlu-AEEA-γGlu-γGlu-C18 diacid])T-NH2; N-terminus assumed): the IC50 is 1.5 nM. Next, `CC[C@H](C)[C@H](NC(=O)[C@H](CC(C)C)NC(=O)[C@H](Cc1c[nH]c2ccccc12)NC(=O)[C@H](CCC(N)=O)NC(=O)[C@@H](NC(=O)[C@H](Cc1ccccc1)NC(=O)[C@H](CCC(=O)O)NC(=O)[C@H](CCCNC(=N)N)NC(=O)[C@H](C)NC(=O)[C@H](CCCNC(=N)N)NC(=O)[C@H](CCCNC(=N)N)NC(=O)[C@H](C)NC(=O)[C@H](CC(=O)O)NC(=O)[C@H](CC(C)C)NC(=O)[C@H](Cc1ccc(O)cc1)NC(=O)[C@H](CCCCN)NC(=O)[C@H](CO)NC(=O)[C@H](CC(C)C)NC(=O)[C@H](CC(=O)O)NC(=O)[C@H](CO)NC(=O)[C@@H](NC(=O)[C@H](Cc1ccccc1)NC(=O)[C@@H](NC(=O)CNC(=O)[C@H](CCC(N)=O)NC(=O)C(C)(C)NC(=O)[C@@H](N)Cc1c[nH]cn1)[C@@H](C)O)[C@@H](C)O)C(C)C)C(=O)N[C@@H](CO)C(=O)N[C@@H](CCCCNC(=O)CC[C@H](NC(=O)CC[C@H](NC(=O)COCCOCCNC(=O)COCCOCCNC(=O)CC[C@H](NC(=O)CCCCCCCCCCCCCCCCC(=O)O)C(=O)O)C(=O)O)C(=O)O)C(N)=O` [Chem. 28, N^ε29-[(4S)-4-carboxy-4-[[(4S)-4-carboxy-4-[[2-[2-[2-[[2-[2-[2-[[(4S)-4-carboxy-4-(17-carboxyheptadecanoylamino)butanoyl]amino]ethoxy]ethoxy]acetyl]amino]ethoxy]ethoxy]acetyl]amino]butanoyl]amino]butanoyl]-[Aib2,Leu10,Ala16,Arg20,Glu21,Ile27,Ser28,Lys29]-Glucagon amide] (H-H[Aib]QGTFTSDLSKYLDARRAREFVQWLISK([γGlu-γGlu-AEEA-AEEA-γGlu-C18 diacid])-NH2; N-terminus assumed): 0.2 nM. To `CC[C@H](C)[C@H](NC(=O)[C@H](CC(C)C)NC(=O)[C@H](Cc1c[nH]c2ccccc12)NC(=O)[C@H](C)NC(=O)[C@@H](NC(=O)[C@H](Cc1ccccc1)NC(=O)[C@H](CC(=O)O)NC(=O)[C@H](CCCNC(=N)N)NC(=O)[C@H](C)NC(=O)[C@H](CCCNC(=N)N)NC(=O)[C@H](CCCNC(=N)N)NC(=O)[C@H](CC(C)C)NC(=O)[C@H](CC(=O)O)NC(=O)[C@H](CC(C)C)NC(=O)[C@H](Cc1ccc(O)cc1)NC(=O)[C@H](CCCCN)NC(=O)[C@H](CO)NC(=O)[C@H](CC(C)C)NC(=O)[C@H](CC(=O)O)NC(=O)[C@H](CO)NC(=O)[C@@H](NC(=O)[C@H](Cc1ccccc1)NC(=O)[C@@H](NC(=O)CNC(=O)[C@H](CCC(N)=O)NC(=O)C(C)(C)NC(=O)[C@@H](N)Cc1c[nH]cn1)[C@@H](C)O)[C@@H](C)O)C(C)C)C(=O)N[C@@H](CC(N)=O)C(=O)N[C@@H](CCCCNC(=O)CC[C@H](NC(=O)CC[C@H](NC(=O)COCCOCCNC(=O)COCCOCCNC(=O)CC[C@H](NC(=O)CCCCCCCCCCCCCCCCC(=O)O)C(=O)O)C(=O)O)C(=O)O)C(N)=O` [Chem. 24, N^ε29-[(4S)-4-carboxy-4-[[(4S)-4-carboxy-4-[[2-[2-[2-[[2-[2-[2-[[(4S)-4-carboxy-4-(17-carboxyheptadecanoylamino)butanoyl]amino]ethoxy]ethoxy]acetyl]amino]ethoxy]ethoxy]acetyl]amino]butanoyl]amino]butanoyl]-[Aib2,Leu10,Leu16,Arg20,Ala24,Ile27,Lys29]-Glucagon amide] (H-H[Aib]QGTFTSDLSKYLDLRRARDFVAWLINK([γGlu-γGlu-AEEA-AEEA-γGlu-C18 diacid])-NH2; N-terminus assumed) belongs 0.4 nM; to `CC[C@H](C)[C@H](NC(=O)[C@H](CC(C)C)NC(=O)[C@H](Cc1c[nH]c2ccccc12)NC(=O)[C@H](CCCCNC(=O)COCCOCCNC(=O)COCCOCCNC(=O)CC[C@H](NC(=O)CC[C@H](NC(=O)CC[C@H](NC(=O)CCCCCCCCCCCCCCCCC(=O)O)C(=O)O)C(=O)O)C(=O)O)NC(=O)[C@@H](NC(=O)[C@H](Cc1ccccc1)NC(=O)[C@H](CCC(=O)O)NC(=O)[C@H](CCCNC(=N)N)NC(=O)[C@H](C)NC(=O)[C@H](CCCNC(=N)N)NC(=O)[C@H](CCCNC(=N)N)NC(=O)[C@H](C)NC(=O)[C@H](CC(=O)O)NC(=O)[C@H](CC(C)C)NC(=O)[C@H](Cc1ccc(O)cc1)NC(=O)[C@H](CCCCN)NC(=O)[C@H](CO)NC(=O)[C@H](Cc1ccc(O)cc1)NC(=O)[C@H](CC(=O)O)NC(=O)[C@H](CO)NC(=O)[C@@H](NC(=O)[C@H](Cc1ccccc1)NC(=O)[C@@H](NC(=O)CNC(=O)[C@H](CCC(N)=O)NC(=O)C(C)(C)NC(=O)[C@@H](N)Cc1c[nH]cn1)[C@@H](C)O)[C@@H](C)O)C(C)C)C(=O)N[C@@H](CO)C(=O)N[C@H](C(N)=O)[C@@H](C)O` [Chem. 4, N^ε24-[2-[2-[2-[[2-[2-[2-[[(4S)-4-carboxy-4-[[(4S)-4-carboxy-4-[[(4S)-4-carboxy-4-(17-carboxyheptadecanoylamino)butanoyl]amino]butanoyl]amino]butanoyl]amino]ethoxy]ethoxy]acetyl]amino]ethoxy]ethoxy]acetyl]-[Aib2,Ala16,Arg20,Glu21,Lys24,Ile27,Ser28]-Glucagon amide] (H-H[Aib]QGTFTSDYSKYLDARRAREFVK([AEEA-AEEA-γGlu-γGlu-γGlu-C18 diacid])WLIST-NH2; N-terminus assumed), 0.1 nM; to `CC[C@H](C)[C@H](NC(=O)[C@H](CC(=O)O)NC(=O)[C@H](CO)NC(=O)[C@@H](NC(=O)[C@H](Cc1ccccc1)NC(=O)[C@@H](NC(=O)CNC(=O)[C@H](CCC(N)=O)NC(=O)C1(NC(=O)[C@@H](N)Cc2c[nH]cn2)CCC1)[C@@H](C)O)[C@@H](C)O)C(=O)N[C@@H](CO)C(=O)N[C@@H](CCCCN)C(=O)N[C@@H](Cc1ccc(O)cc1)C(=O)N[C@@H](CC(C)C)C(=O)N[C@@H](CCC(=O)O)C(=O)N[C@@H](CO)C(=O)N[C@@H](CCCNC(=N)N)C(=O)N[C@@H](CCCNC(=N)N)C(=O)N[C@@H](C)C(=O)N[C@@H](CCCNC(=N)N)C(=O)N[C@@H](CCC(=O)O)C(=O)N[C@@H](Cc1ccccc1)C(=O)N[C@H](C(=O)N[C@@H](CCC(N)=O)C(=O)N[C@@H](Cc1c[nH]c2ccccc12)C(=O)N[C@@H](CC(C)C)C(=O)N[C@H](C(=O)N[C@@H](CCCCNC(=O)CC[C@H](NC(=O)CC[C@H](NC(=O)COCCOCCNC(=O)COCCOCCNC(=O)CC[C@H](NC(=O)CC[C@H](NC(=O)CCCCCCCCCCCCCCCCC(=O)O)C(=O)O)C(=O)O)C(=O)O)C(=O)O)C(=O)N[C@H](C(N)=O)[C@@H](C)O)[C@@H](C)CC)C(C)C` [Chem. 26, N^ε28-[(4S)-4-carboxy-4-[[(4S)-4-carboxy-4-[[2-[2-[2-[[2-[2-[2-[[(4S)-4-carboxy-4-[[(4S)-4-carboxy-4-(17-carboxyheptadecanoylamino)butanoyl]amino]butanoyl]amino]ethoxy]ethoxy]acetyl]amino]ethoxy]ethoxy]acetyl]amino]butanoyl]amino]butanoyl]-[Acb2,Ile10,Glu15,Arg20,Glu21,Ile27,Lys28]-Glucagon amide] (H-H[Ac4c]QGTFTSDISKYLESRRAREFVQWLIK([γGlu-γGlu-AEEA-AEEA-γGlu-γGlu-C18 diacid])T-NH2; N-terminus assumed), 0.4 nM.

Values taken from patent US10570184B2, “GLP-1/glucagon receptor co-agonists for medical use” (Novo Nordisk A/S, priority 2014, dated 2020).
